Reference: patent US20240327320A1, “NOVEL ROUTES OF CHEMICAL SYNTHESIS OF 20S(OH)D3, 20S,25(OH)2D3, 20S,23S(OH)2D3, AND 20S,23R(OH)2D3 AND THEIR MODIFICATION OF THE IMMUNE ACTIVITY OF PBMCS” (United State Government as represen ted by the Department …, priority 2023, published 2024)

Test system: Human epidermal keratinocytes (HEKn)
Test: Gene expression of differentiation markers, quantitative RT-PCR
Format: cell-based
Conditions: 8 h, FIG. 7A, compared to 20S(OH)D3
Procedure: RNA isolation and reverse transcription were performed as described previously (Slominski A T, et. al., (2021) Sci Rep 11(1) 8002). Quantitative RT-PCR was carried out using Sybr green Master Mix (Thermo Scientific, Waltham, MA), in triplicates as previously described (Slominski A T, et. al., (2021) Sci Rep 11(1) 8002; Janjetovic Z, et. al., (2014) J Pineal Res 57(1) 90-102). Human epidermal keratinocytes (HEKn) isolated from foreskin of white neonates were cultured until the third passage before treatment as described in the literature (Chaiprasongsuk A, et. al., (2019) Redox Biol 24 101206; Janjetovic Z, et. al., (2009) PloS one 4(6) e5988). Cells were treated with vitamin D3 derivatives for 8 h or 24 h and harvested for RNA isolation. Approximately 300 ng of RNA was used for cDNA synthesis and an equal amount of cDNA was used for PCR reactions. Cyclophilin B or GAPDH was used as an internal control. Primers sequences are listed in (Chaiprasongsuk A, et. al., (2020) Free Radic Biol Med 155 87-9845, Slominski A T, et. al., (2017) Sci Rep 7(1) 11434). Reactions were done in triplicate.
Referring to FIG. 7A-D, stimulation of keratinocyte differentiation by 20S(OH)D3, 20S,25(OH)2D3, 20S,23S(OH)2D3 and 20S,23R(OH)2D3 in comparison to 1α,25(OH)2D3. […]

With `C=C1CC[C@H](O)C/C1=C/C=C1\CCC[C@@]2(C)[C@H]1CC[C@@H]2[C@@](C)(O)CCCC(C)(C)O` [20S,25(OH)2D3, (20S)-20,25-Dihydroxyvitamin D3] the “gene expression of involucrin, CK10, and filaggrin” value was “slightly better at inducing gene expression of involucrin, CK10, and filaggrin”.
